Laboratory results: patent publication US20070129384A1 (priority 2003, published 2007)
Read-outs that look alike come from different tables or passages of the source.

Test system: Pyricularia oryzae
Assay type: in vivo
Conditions: individual active compound, protective, rice leaves, evaluated 6 days after inoculation, untreated 89% infection

Row | SMILES | Efficacy in % of the untreated control (1 ppm in the spray liquor) [%] | Efficacy in % of the untreated control (16 ppm in the spray liquor) [%] | Efficacy in % of the untreated control (4 ppm in the spray liquor) [%]
1 | CC1CCN(c2c(-c3c(F)cc(F)cc3F)c(Cl)nc3ncnn23)CC1 [I, 5-chloro-7-(4-methylpiperidin-1-yl)-6-(2,4,6-trifluorophenyl)-[1,2,4]tri-azolo[1,5-a]pyrimidine] | 10 | 32 | –
2 | COC(=O)Nc1nc2ccccc2[nH]1 [II, methyl (1 H-benzoimidazol-2-yl)carbamate] | – | 32 | 0
